Assay results from US20240247080A1, “GLP1/GIP/NPY2 RECEPTOR TRIPLE AGONISTS” (Boehringer Ingelheim International GmbH, priority 2022, published 2024).
Read-outs that look alike come from different tables or passages of the source. Starred links: 1 amine or outer side, 2 acyl side, 3 side chain; linkers in the order of their positions; H or OH if unused. Non-standard residues stand in square brackets, D forms with d. Groups on a side chain read outwards from the residue. *: point of attachment. C18 diacid = O=C(O)CCCCCCCCCCCCCCCCC(=O)*; γGlu = O=C(O)[C@H](CCC(=O)[*:2])N[*:1]; AEEA = NCCOCCOCC(=O)O; Aib = CC(C)(N)C(=O)O

Assays:
[1] = target: T1, hGLP1R (Homo sapiens, UniProt P43220); assay: hGLP1R CreLuc reporter gene assay in 0.5% and 100% plasma; assay type: cell-based; details: CreLuc reporter gene assay, 0.5% human plasma; read-out: hGLP1R 0.5% hP
T1 construct: expressed in transfected cells; host or cells: HEK-293 cells carrying a CRE-luciferase reporter gene
Outline: (§1)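 Agonist EC50s came from 8-concentration curves over four decades, fitted by non-linear variable-slope regression of CRE-driven luciferase luminescence. Cells were exposed 4 h at 37 °C, in buffer with 0.5% human plasma or in 100% plasma; GIPR was expressed in CHO cells, GLP-1R and NPY2R in HEK cells.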

[2] = target: T2, hGIPR (Homo sapiens, UniProt P48546); assay: hGIPR CreLuc reporter gene assay in 0.5% and 100% plasma; assay type: cell-based; details: CreLuc reporter gene assay
T2 construct: expressed in transfected cells; host or cells: CHO cells carrying a CRE-luciferase reporter gene
T2 sequence (P48546 22-466): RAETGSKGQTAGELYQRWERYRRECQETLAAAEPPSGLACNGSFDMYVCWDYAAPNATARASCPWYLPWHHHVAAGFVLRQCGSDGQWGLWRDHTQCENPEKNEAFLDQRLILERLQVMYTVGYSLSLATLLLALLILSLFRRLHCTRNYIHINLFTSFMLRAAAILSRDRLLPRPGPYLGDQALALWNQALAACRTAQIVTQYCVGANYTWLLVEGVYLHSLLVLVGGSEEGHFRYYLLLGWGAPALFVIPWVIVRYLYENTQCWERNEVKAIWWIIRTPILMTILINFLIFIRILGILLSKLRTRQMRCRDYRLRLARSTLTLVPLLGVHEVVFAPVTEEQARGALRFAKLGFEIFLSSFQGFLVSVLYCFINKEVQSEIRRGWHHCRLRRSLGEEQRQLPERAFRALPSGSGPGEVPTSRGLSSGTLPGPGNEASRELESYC
Outline: as §1

[3] = target: T3, hNPY2R (Homo sapiens, UniProt P49146); assay: hNPY2R CreLuc reporter gene assay in 0.5% and 100% plasma; assay type: cell-based; details: CreLuc reporter gene assay
T3 construct: expressed in transfected cells; host or cells: HEK-293 cells carrying a CRE-luciferase reporter gene
T3 sequence (P49146 1-381): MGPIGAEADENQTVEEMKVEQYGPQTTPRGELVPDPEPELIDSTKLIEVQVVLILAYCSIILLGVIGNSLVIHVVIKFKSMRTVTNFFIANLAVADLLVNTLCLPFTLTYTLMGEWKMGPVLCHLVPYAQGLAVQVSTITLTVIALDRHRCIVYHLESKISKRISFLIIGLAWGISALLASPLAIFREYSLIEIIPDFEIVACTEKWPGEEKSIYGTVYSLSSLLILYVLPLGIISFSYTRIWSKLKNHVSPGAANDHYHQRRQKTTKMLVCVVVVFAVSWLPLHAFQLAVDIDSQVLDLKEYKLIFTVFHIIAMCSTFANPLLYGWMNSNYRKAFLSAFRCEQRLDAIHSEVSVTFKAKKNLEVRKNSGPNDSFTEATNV
Outline: as §1

[4] = Mouse PK after intravenous application; assay type: in vivo; details: plasma, mean residence time, intravenous 30-60 nmol/kg, male NMRI mice
Outline: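 Male NMRI mice (30–40 g) received 30-60 nmol/kg peptide by tail-vein injection, dissolved in 50 mM phosphate buffer (pH 7.4)/3.5% mannitol. Saphenous blood was sampled up to 56 hours post-dose and EDTA plasma analysed by LC-MS. PK parameters came from non-compartmental analysis.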

[5] = Effect on acute food intake in normal NMRI mice; assay type: in vivo; details: 30 nmol/kg subcutaneously once, normalized to vehicle group, male NMRI mice
Description: Example 4: Effect on Acute Food Intake in Normal NMRI Mice
Male NMRI mice were obtained from Janvier (Janvier Labs, France) or from Charles River (Charles River Research Models & Services Germany GmbH) at the age of 3 weeks. The animals get a microchip (Datamars, Slim Microchip T-SL) for individual identification after delivery. They were housed with 4 mice per cage under a 12/12 dark-light cycle, light off at 3 p.m. Room temperature was controlled to 21° C. +/−1° C. and humidity 60%+/−20%. Mice had ad libitum access to regular rodent chow (KLIBA Nafag 3040 or Altromin 1324, Brogaarden, Denmark) and tap water.
Latest transfer into the HM2-System of MBRose, Denmark (real-time monitoring system of food- and water intake) of the animals 5 days before study start, to allow acclimatization to experimental conditions. As the animals were uniquely identified with the microchips, each individual animal was identified by its own microchip upon entry and exit from the food channel via antennae. Randomization of the mice for each study group (n=8; age earliest 6 weeks old) was based on food intake (middle of last three days 24 h-Intervall) and bodyweight directly before start of the study. A vehicle treated (50 mM phosphate buffer pH7.4 with 3.5% Mannitol) group was included in each experiment. To have the same nutrition standard for each animal the food access was locked eight hours before dark phase. One hour before night, the animals were once treated subcutaneously with the test peptide. Food intake was reported hourly for a period of 24 h.

[6] = 0.5% human plasma, read-out: hGIPR 0.5% hP
[7] = 0.5% human plasma, read-out: hNPY2R 0.5% hP

T1 sequence (P43220 24-463): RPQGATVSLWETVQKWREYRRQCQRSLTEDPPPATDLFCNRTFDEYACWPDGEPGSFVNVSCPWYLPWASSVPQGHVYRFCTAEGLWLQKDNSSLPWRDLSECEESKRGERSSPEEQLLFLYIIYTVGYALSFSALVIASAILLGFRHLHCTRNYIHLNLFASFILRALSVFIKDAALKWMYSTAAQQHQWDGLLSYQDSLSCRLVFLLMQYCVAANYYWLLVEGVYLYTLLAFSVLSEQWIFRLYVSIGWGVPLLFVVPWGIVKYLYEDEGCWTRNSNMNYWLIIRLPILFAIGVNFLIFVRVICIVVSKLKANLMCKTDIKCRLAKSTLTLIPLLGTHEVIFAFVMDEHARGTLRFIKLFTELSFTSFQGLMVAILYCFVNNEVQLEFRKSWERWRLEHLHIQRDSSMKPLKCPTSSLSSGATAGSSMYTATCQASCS

Compound	EC50 [1] [nM]	EC50 [2, 6] [nM]	EC50 ([2]; 100% human plasma, read-out: hGIPR 100% hP) [nM]	EC50 [3, 7] [nM]	MRT [4] [h]	Acute Food Intake 24 h 30 nmol/kg [% CTL] [5] [% CTL]	EC50 ([3]; 100% human plasma, read-out: hNPY2R 100% hP) [nM]
H-Y[Aib]EGTFTSDYSI[Aib]LEKQAQ[Aib]EFVEWLIK([AEEA-AEEA-γGlu-γGlu-γGlu-γGlu-C18 diacid])GGPSSGASLRHYYNWLTRQRY-NH2 [Compound 145, Y-Aib-E-G-T-F-T-S-D-Y-S-I-Aib-L-E-K-Q-A-Q-Aib-E-F-V-E-W-L-I-K(1,3)-GGPSSGASLRHYYNWLTRQRY-NH2.C18DA-gGlu-gGlu-gGlu-gGlu-OEG-OEG(1,2)]	0.31	0.28	1.23	11.9	8	43	–
CC[C@H](C)[C@H](NC(=O)[C@H](CC(C)C)NC(=O)[C@H](Cc1c[nH]c2ccccc12)NC(=O)[C@H](CCC(=O)O)NC(=O)[C@@H](NC(=O)[C@H](Cc1ccccc1)NC(=O)[C@H](C)NC(=O)C(C)(C)NC(=O)[C@H](CCC(N)=O)NC(=O)[C@H](C)NC(=O)[C@H](CCC(N)=O)NC(=O)[C@H](CCCCN)NC(=O)[C@H](CCC(=O)O)NC(=O)[C@H](CC(C)C)NC(=O)C(C)(C)NC(=O)[C@@H](NC(=O)[C@H](CO)NC(=O)[C@H](Cc1ccc(O)cc1)NC(=O)[C@H](CC(=O)O)NC(=O)[C@H](CO)NC(=O)[C@@H](NC(=O)[C@H](Cc1ccccc1)NC(=O)[C@@H](NC(=O)CNC(=O)[C@H](CCC(=O)O)NC(=O)C(C)(C)NC(=O)[C@@H](N)Cc1ccc(O)cc1)[C@@H](C)O)[C@@H](C)O)[C@@H](C)CC)C(C)C)C(=O)N[C@@H](CCCCNC(=O)[C@@H](N)CCCCNC(=O)CC[C@H](NC(=O)CC[C@H](NC(=O)CC[C@H](NC(=O)CC[C@H](NC(=O)CC[C@H](NC(=O)CC[C@H](NC(=O)CCCCCCCCCCCCCCCCCCC(=O)O)C(=O)O)C(=O)O)C(=O)O)C(=O)O)C(=O)O)C(=O)O)C(=O)NCC(=O)NCC(=O)N1CCC[C@H]1C(=O)N[C@@H](CO)C(=O)N[C@@H](CCC(=O)O)C(=O)NCC(=O)N[C@@H](C)C(=O)N[C@@H](CO)C(=O)N[C@@H](CC(C)C)C(=O)N[C@@H](CCCNC(=N)N)C(=O)N[C@@H](Cc1c[nH]cn1)C(=O)N[C@@H](Cc1ccc(O)cc1)C(=O)N[C@@H](Cc1ccc(O)cc1)C(=O)N[C@@H](CC(N)=O)C(=O)N[C@@H](Cc1c[nH]c2ccccc12)C(=O)N[C@@H](CC(C)C)C(=O)N[C@H](C(=O)N[C@@H](CCCNC(=N)N)C(=O)N(C)[C@@H](CCC(N)=O)C(=O)N[C@@H](CCCNC(=N)N)C(=O)N[C@@H](Cc1ccc(O)cc1)C(N)=O)[C@@H](C)O [Compound 222, Y-Aib-E-G-T-F-T-S-D-Y-S-I-Aib-L-E-K-Q-A-Q-Aib-A-F-V-E-W-L-I-K(1,3)-G-G-P-S-E-G-A-S-L-R-H-Y-Y-N-W-L-T-R-NMeQ-R-Y-NH2.C20DA-gGlu-gGlu-gGlu-gGlu-gGlu-gGlu-eLys(1,2)]	0.24	0.19	–	13.3	11.8	72	–
CC[C@H](C)[C@H](NC(=O)[C@H](CC(C)C)NC(=O)[C@H](Cc1c[nH]c2ccccc12)NC(=O)[C@H](CCC(=O)O)NC(=O)[C@@H](NC(=O)[C@H](Cc1ccccc1)NC(=O)[C@H](C)NC(=O)C(C)(C)NC(=O)[C@H](CCC(N)=O)NC(=O)[C@H](C)NC(=O)[C@H](CCC(N)=O)NC(=O)[C@H](CCCCN)NC(=O)[C@H](CCC(=O)O)NC(=O)[C@H](CC(C)C)NC(=O)C(C)(C)NC(=O)[C@@H](NC(=O)[C@H](CO)NC(=O)[C@H](Cc1ccc(O)cc1)NC(=O)[C@H](CC(=O)O)NC(=O)[C@H](CO)NC(=O)[C@@H](NC(=O)[C@H](Cc1ccccc1)NC(=O)[C@@H](NC(=O)CNC(=O)[C@H](CCC(=O)O)NC(=O)C(C)(C)NC(=O)[C@@H](N)Cc1ccc(O)cc1)[C@@H](C)O)[C@@H](C)O)[C@@H](C)CC)C(C)C)C(=O)N[C@@H](CCCCNC(=O)[C@@H](N)CCCCNC(=O)CC[C@H](NC(=O)CC[C@H](NC(=O)CC[C@H](NC(=O)CC[C@H](NC(=O)CC[C@H](NC(=O)CC[C@H](NC(=O)CCCCCCCCCCCCCCCCCCC(=O)O)C(=O)O)C(=O)O)C(=O)O)C(=O)O)C(=O)O)C(=O)O)C(=O)NCC(=O)NCC(=O)N1CCC[C@H]1C(=O)N[C@@H](CO)C(=O)N[C@@H](CO)C(=O)NCC(=O)N[C@@H](C)C(=O)N[C@@H](CO)C(=O)N[C@@H](CC(C)C)C(=O)N[C@@H](CCCNC(=N)N)C(=O)N[C@@H](Cc1c[nH]cn1)C(=O)N[C@@H](Cc1ccc(O)cc1)C(=O)N[C@@H](Cc1ccc(O)cc1)C(=O)N[C@@H](CC(N)=O)C(=O)N[C@@H](Cc1c[nH]c2ccccc12)C(=O)N[C@@H](CC(C)C)C(=O)N[C@H](C(=O)N[C@@H](CCCNC(=N)N)C(=O)N[C@@H](CCC(N)=O)C(=O)N[C@@H](CCCNC(=N)N)C(=O)N[C@@H](Cc1ccc(O)cc1)C(N)=O)[C@@H](C)O [Compound 221, Y-Aib-E-G-T-F-T-S-D-Y-S-I-Aib-L-E-K-Q-A-Q-Aib-A-F-V-E-W-L-I-K(1,3)-GGPSSGASLRHYYNWLTRQRY-NH2.C20DA-gGlu-gGlu-gGlu-gGlu-gGlu-gGlu-eLys(1,2)]	0.11	0.14	–	12.4	11	51	49.3
